Reference: ChEMBL document CHEMBL5584239, “Discovery of novel quinoline scaffold selective estrogen receptor degraders (SERDs) for treatment of ER positive breast cancer with enhanced antiproliferative bioactivity through immunogenic cell death (ICD) effects” (Eur J Med Chem, 2024)
The source made the active and inactive calls. No cut-off for these calls is given here.

How the values were obtained:
MCF7 [1] = assay: Induction of immunogenic cell death in human MCF7 cells assessed as HSP90 exposure at 10 uM by Western blot analysis; type: functional, cell-based
MCF7 [2] = assay: Antitumor activity against human MCF7 cells xenografted in nude mouse model assessed as reduction in Ki67 level at 60 mg/kg, po administered daily via gavage for 30 days in presence of ribociclib by IHC analysis; type: functional, organism-based; details: time 30.0 day
MCF7 [3] = assay: Induction of immunogenic cell death in human MCF7 cells assessed as CRT translocation at 10 uM by fluorescence microscopy; type: functional, cell-based
MCF7 [4] = assay: Induction of endoplasmic reticulum stress effect in human MCF7 cells assessed as change in EIF-2alpha level at 10 uM incubated for 3 to 24 hrs by Western blot analysis; type: functional, cell-based; details: time 3-24 hrs
MCF7 [5] = assay: Induction of immunogenic cell death in human MCF7 cells assessed as ATP release […] at 10 uM; type: functional, cell-based
Uterus = assay: Effect on immature Sprague-Dawley rat uterus assessed as reduction in uterine wet weight at 60 mg/kg, po qd for 2 days by H and E staining based analysis; type: functional, organism-based; details: time 2.0 day
[6] = Apparent volume of distribution in rat at 5 mg/kg, iv measured for 1 to 24 hrs by LC-MS analysis; type: ADME, organism-based; details: in vivo, time 1-24 hrs, read-out: Vz
MCF7 [7] = assay: Antitumor activity against human MCF7 cells xenografted in nude mouse model assessed as tumor growth inhibition at 60 mg/kg, po administered daily via gavage for 30 days; type: functional, organism-based; details: time 30.0 day
MCF7 [8] = assay: Induction of endoplasmic reticulum stress effect in human MCF7 cells assessed as change in CHOP level at 10 uM incubated for 24 hrs by immunofluorescence based analysis; type: functional, cell-based
MCF7 [9] = assay: Induction of immunogenic cell death in human MCF7 cells assessed as CRT translocation at 10 uM by FITC staining based flow cytometry; type: functional
MCF7 [10] = assay: Induction of endoplasmic reticulum stress effect in human MCF7 cells assessed as change in ATF4 level at 10 uM incubated for 3 to 24 hrs by Western blot analysis; type: functional, cell-based; details: time 3-24 hrs
[11] = Oral bioavailability in rat at 20 mg/kg measured for 1 to 24 hrs by LC-MS analysis; type: ADME, organism-based; details: in vivo, time 1-24 hrs
[12] = Toxicity in nude mouse model xenografted with human MCF7 cells assessed as morphological change in liver at 60 mg/kg, po administered daily via gavage for 30 days by H and E staining based analysis; type: organism-based; details: in vivo, 720 h, time 30 day
[13] = Toxicity in nude mouse model xenografted with human MCF7 cells assessed as body weight loss at 60 mg/kg, po administered daily via gavage for 30 days; type: organism-based; details: in vivo, 720 h, time 30 day
MCF7 [14] = assay: Induction of immunogenic cell death in human MCF7 cells assessed as HMGB1 release from nucleus at 10 uM by Western blot analysis; type: functional, cell-based
[15] = MRT (0 to infinity) in rat at 20 mg/kg, po measured for 1 to 24 hrs by LC-MS analysis; type: ADME, organism-based; details: in vivo, time 1-24 hrs
MCF7 [16] = assay: Induction of ROS production in human MCF7 cells incubated for 3 to 24 hrs by immunofluorescence analysis; type: functional, cell-based; details: time 3-24 hrs
[17] = Cmax in rat at 20 mg/kg, po measured for 1 to 24 hrs by LC-MS analysis; type: ADME, organism-based; details: in vivo, time 1-24 hrs
[18] = AUC (0 to infinity) in rat at 5 mg/kg, iv measured for 1 to 24 hrs by LC-MS analysis; type: ADME, organism-based; details: in vivo, time 1-24 hrs
[19] = target: T1, Estrogen receptor (Homo sapiens) (UniProt P03372); assay: Induction of estrogen receptor degradation in human MCF7 cells at 10 uM by fluorescence microscopy; type: cell-based
T1 sequence (whole entry): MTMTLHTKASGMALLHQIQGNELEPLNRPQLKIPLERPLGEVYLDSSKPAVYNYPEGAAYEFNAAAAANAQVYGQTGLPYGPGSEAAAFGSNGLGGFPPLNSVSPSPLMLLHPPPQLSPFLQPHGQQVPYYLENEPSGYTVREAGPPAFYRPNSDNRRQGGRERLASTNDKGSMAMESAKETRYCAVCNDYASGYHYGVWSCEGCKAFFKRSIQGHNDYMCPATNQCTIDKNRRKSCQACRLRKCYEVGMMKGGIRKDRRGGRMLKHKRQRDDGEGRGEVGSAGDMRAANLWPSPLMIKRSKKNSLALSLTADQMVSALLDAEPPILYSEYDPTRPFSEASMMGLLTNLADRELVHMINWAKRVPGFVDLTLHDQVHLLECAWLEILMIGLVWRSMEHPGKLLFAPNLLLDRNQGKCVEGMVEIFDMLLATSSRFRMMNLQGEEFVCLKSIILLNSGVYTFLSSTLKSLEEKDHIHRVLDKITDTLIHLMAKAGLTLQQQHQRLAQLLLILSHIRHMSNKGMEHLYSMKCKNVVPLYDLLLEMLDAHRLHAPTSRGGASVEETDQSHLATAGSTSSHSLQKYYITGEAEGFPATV

[20] = MRT (0 to t) in rat at 5 mg/kg, iv measured for 1 to 24 hrs by LC-MS analysis; type: ADME, organism-based; details: in vivo, time 1-24 hrs
[21] = target: T1, Estrogen receptor (Homo sapiens); assay: Induction of estrogen receptor degradation in MG-132-treated human MCF7 cells at 10 uM incubated for 4 to 6 hrs by Western blot analysis; type: cell-based; details: time 4-6 hrs
[22] = Tmax in rat at 5 mg/kg, iv measured for 1 to 24 hrs by LC-MS analysis; type: ADME, organism-based; details: in vivo, time 1-24 hrs
[23] = target: T1, Estrogen receptor (Homo sapiens); assay: Induction of estrogen receptor degradation in human MCF7 cells expressing ERE-luciferase at 10 uM incubated for 24 hrs by luminescence based analysis; type: cell-based
MCF7 [24] = assay: Induction of cell cycle arrest at G0/G1 phase in human MCF7 cells at 10 uM incubated for 24 hrs by PI/RNase staining based flow cytometry (reference value: 53.5 +/- 1.96 %); type: functional
[25] = AUC (0 to infinity) in rat at 20 mg/kg, po measured for 1 to 24 hrs by LC-MS analysis; type: ADME, organism-based; details: in vivo, time 1-24 hrs
MCF7 [26] = assay: Induction of endoplasmic reticulum stress effect in human MCF7 cells assessed as change in calnexin level at 10 uM incubated for 3 to 24 hrs by Western blot analysis; type: functional, cell-based; details: time 3-24 hrs
MCF7 [27] = assay: Induction of endoplasmic reticulum stress effect in human MCF7 cells assessed as change in CHOP level at 10 uM incubated for 3 to 24 hrs by Western blot analysis; type: functional, cell-based; details: time 3-24 hrs
MCF7 [28] = assay: Induction of immunogenic cell death in human MCF7 cells assessed as CRT translocation at 10 uM by Western blot analysis; type: functional, cell-based
MCF7 [29] = assay: Induction of endoplasmic reticulum stress effect in human MCF7 cells assessed as change in GRP78 level at 10 uM incubated for 3 to 24 hrs by Western blot analysis; type: functional, cell-based; details: time 3-24 hrs
[30] = Clearance in rat at 5 mg/kg, iv measured for 1 to 24 hrs by LC-MS analysis; type: ADME, organism-based; details: in vivo, time 1-24 hrs
MCF7 [31] = assay: Induction of immunogenic cell death in human MCF7 cells assessed as HMGB1 release from nucleus at 10 uM by fluorescence microscopy; type: functional, cell-based
MCF7 [32] = assay: Antitumor activity against human MCF7 cells xenografted in nude mouse model assessed as reduction in ER level at 60 mg/kg, po administered daily via gavage for 30 days in presence of ribociclib by IHC analysis; type: functional, organism-based; details: time 30.0 day
[33] = target: T1, Estrogen receptor (Homo sapiens); assay: Induction of estrogen receptor degradation in estradiol-stimulated human MCF7 cells assessed as decrease in GREB1 mRNA level incubated for 24 hrs by RT-qPCR analysis; type: cell-based; details: dose 1-10 µM

Vd [6]: 2 L/kg | bioavailability [11]: 5.32% | MRT inf [15]: 160 min | Cmax [17]: 501 ng/mL | AUC(0-inf) [18]: 3050 ng·h/mL | Activity [19]: Active | MRT last [20]: 7.2 min | Activity [21]: inactive | Tmax [22]: 4.98 min | Activity [23]: Active | AUC(0-inf) [25]: 649 ng·h/mL | clearance [30]: 27.8 mL/min/kg | Activity [33]: Dose-Dependent Effect
SMILES: CCc1ccccc1C(=O)c1cnc2cc(O)ccc2c1Oc1ccc(/C=C/C(=O)O)cc1
Activity (MCF7 [1]): Active | Activity (MCF7 [2]): Active | Activity (MCF7 [3]): Active | Activity (MCF7 [4]): Active | Activity (MCF7 [5]): Active | Activity (Uterus): inactive | inhibition (MCF7 [7]): Active | Activity (MCF7 [8]): Active | Activity (MCF7 [9]): Active | Activity (MCF7 [10]): Active | Activity [12]: Non-Toxic | Activity [13]: Non-Toxic | Activity (MCF7 [14]): Active | Activity (MCF7 [16]): inactive | Activity (MCF7 [24]): 59.7% | Activity (MCF7 [26]): Active | Activity (MCF7 [27]): Active | Activity (MCF7 [28]): Active | Activity (MCF7 [29]): Active | Activity (MCF7 [31]): Active | Activity (MCF7 [32]): Active
